4 molecules from PubChem BioAssay AID330 (DTP/NCI, 2004) can be followed below.

Several values for one entry are separate records, joined by “and”; a condition that tells them apart may be missing. Identical values can stand only once. Toxic doses and inconclusive results are not listed.

The subject of this assay is P388 leukemia ip, CD2F1 mice, survival T/C. In words: NCI In Vivo Anticancer Drug Screen. Data for tumor model P388 Leukemia (intraperitoneal) in CD2F1 (CDF1) mice. The settings on record: endpoint: median survival time, higher = longer survival. The method in brief:
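Mice carrying the transplanted tumor received test compound or vehicle. Survival was recorded in each group, and the value is the treated-group measurement divided by that of the vehicle-treated control group.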

For `O=P1(N(CCCl)CCCl)NCCCO1` (centres undefined), the T/C (dose: 4.0 mg/kg/injection, schedule: Q01DX009 (ip), vehicle: saline) is 116 % of control and 122 % of control; the T/C (dose: 6.25 mg/kg/injection, schedule: Q01DX009 (ip), vehicle: saline) is 150 % of control and 151 % of control; the T/C (dose: 8.0 mg/kg/injection, schedule: Q01DX009 (ip), vehicle: saline) is 150 % of control; the T/C (dose: 10.0 mg/kg/injection, schedule: Q04DX003 (iv), vehicle: saline) was 119 % of control; the T/C (dose: 12.5 mg/kg/injection, schedule: Q01DX009 (ip), vehicle: saline) is 153 % of control and 185 % of control and 192 % of control; the T/C (dose: 15.0 mg/kg/injection, schedule: Q04DX003 (ip), vehicle: saline) was 150 % of control. For the same molecule, the T/C (dose: 16.0 mg/kg/injection, schedule: Q01DX009 (ip), vehicle: saline) was 183 % of control and 188 % of control; the T/C (dose: 16.2 mg/kg/injection, schedule: Q04DX003 (ip), vehicle: saline) is 153 % of control; the T/C (dose: 20.0 mg/kg/injection, schedule: Q01DX009 (ip), vehicle: saline) was 187 % of control; the T/C (dose: 20.0 mg/kg/injection, schedule: Q04DX003 (ip), vehicle: water) was 164 % of control; the T/C (dose: 20.0 mg/kg/injection, schedule: Q04DX003 (iv), vehicle: saline) is 158 % of control; the T/C (dose: 22.2 mg/kg/injection, schedule: Q01DX009 (ip), vehicle: saline) is 213 % of control. Further, the T/C is 110 % of control (dose: 25.0 mg/kg/injection, schedule: Q04DX003 (ip), vehicle: water); 178 % of control (dose: 27.0 mg/kg/injection, schedule: Q04DX003 (ip), vehicle: saline); 190 % of control (dose: 28.8 mg/kg/injection, schedule: Q01DX005 (ip), vehicle: saline); 272 % of control (dose: 30.0 mg/kg/injection, schedule: Q01DX010 (ip), vehicle: water); 195 % of control (dose: 30.0 mg/kg/injection, schedule: Q04DX003 (ip), vehicle: saline); 174 % of control (dose: 31.3 mg/kg/injection, schedule: Q01DX001 (iv), vehicle: saline). Further, the T/C runs as follows: (dose: 32.4 mg/kg/injection, schedule: Q04DX002 (ip), vehicle: saline) 163 % of control and 178 % of control; (dose: 33.3 mg/kg/injection, schedule: Q01DX009 (ip), vehicle: saline) 261 % of control; (dose: 36.0 mg/kg/injection, schedule: Q01DX009 (ip), vehicle: saline) 258 % of control; (dose: 38.9 mg/kg/injection, schedule: Q04DX003 (ip), vehicle: saline) 227 % of control; (dose: 40.0 mg/kg/injection, schedule: Q04DX003 (ip), vehicle: saline) 197 % of control and 204 % of control; (dose: 40.0 mg/kg/injection, schedule: Q04DX003 (ip), vehicle: water) 225 % of control. Besides, the T/C reads like this: (dose: 40.0 mg/kg/injection, schedule: Q04DX003 (iv), vehicle: saline) 203 % of control; (dose: 45.0 mg/kg/injection, schedule: Q01DX010 (ip), vehicle: water) 240 % of control; (dose: 45.0 mg/kg/injection, schedule: Q04DX003 (ip), vehicle: saline) 324 % of control; (dose: 48.0 mg/kg/injection, schedule: Q01DX005 (ip), vehicle: saline) 240 % of control; (dose: 48.0 mg/kg/injection, schedule: Q01DX009 (ip), vehicle: saline) 118 % of control; (dose: 50.0 mg/kg/injection, schedule: Q01DX001 (ip), vehicle: water) 157 % of control and 160 % of control. Moreover, the T/C by setting is: (dose: 50.0 mg/kg/injection, schedule: Q01DX009 (ip), vehicle: water) 103 % of control; (dose: 50.0 mg/kg/injection, schedule: Q04DX003 (ip), vehicle: water) 198 % of control and 214 % of control; (dose: 54.0 mg/kg/injection, schedule: Q04DX002 (ip), vehicle: saline) 209 % of control and 213 % of control; (dose: 60.0 mg/kg/injection, schedule: Q01DX009 (ip), vehicle: saline) 99 % of control; (dose: 60.0 mg/kg/injection, schedule: Q04DX003 (ip), vehicle: saline) 274 % of control; (dose: 62.5 mg/kg/injection, schedule: Q01DX001 (iv), vehicle: saline) 220 % of control. In addition, the T/C reads like this: (dose: 64.0 mg/kg/injection, schedule: Q01DX009 (ip), vehicle: saline) 187 % of control and 194 % of control; (dose: 64.8 mg/kg/injection, schedule: Q04DX003 (ip), vehicle: saline) 317 % of control; (dose: 70.0 mg/kg/injection, schedule: Q04DX003 (ip), vehicle: saline) 225 % of control; (dose: 73.0 mg/kg/injection, schedule: Q04DX003 (ip), vehicle: saline) 300 % of control; (dose: 75.0 mg/kg/injection, schedule: Q01DX009 (ip), vehicle: saline) 157 % of control; (dose: 75.0 mg/kg/injection, schedule: Q01DX010 (ip), vehicle: water) 118 % of control. In addition, the T/C was 358 % of control (dose: 75.0 mg/kg/injection, schedule: Q04DX003 (ip), vehicle: saline); 155 % of control (dose: 80.0 mg/kg/injection, schedule: Q01DX001 (ip), vehicle: saline); 216 % of control and 284 % of control (dose: 80.0 mg/kg/injection, schedule: Q04DX003 (ip), vehicle: saline); 269 % of control (dose: 80.0 mg/kg/injection, schedule: Q04DX003 (ip), vehicle: water); 194 % of control (dose: 80.0 mg/kg/injection, schedule: Q04DX003 (iv), vehicle: saline); 220 % of control and 228 % of control (dose: 90.0 mg/kg/injection, schedule: Q04DX002 (ip), vehicle: saline). The T/C is 199 % of control and 221 % of control (dose: 100.0 mg/kg/injection, schedule: Q01DX001 (ip), vehicle: water); 288 % of control and 324 % of control (dose: 100.0 mg/kg/injection, schedule: Q04DX003 (ip), vehicle: water); 152 % of control (dose: 108.0 mg/kg/injection, schedule: Q04DX003 (ip), vehicle: saline); 245 % of control (dose: 119.0 mg/kg/injection, schedule: Q01DX001 (ip), vehicle: saline); 350 % of control (dose: 125.0 mg/kg/injection, schedule: Q01DX001 (iv), vehicle: saline); 189 % of control and 196 % of control (dose: 125.0 mg/kg/injection, schedule: Q04DX003 (ip), vehicle: saline). In addition, the T/C is 394 % of control and 409 % of control (dose: 150.0 mg/kg/injection, schedule: Q04DX002 (ip), vehicle: saline); 111 % of control and 231 % of control and 260 % of control (dose: 150.0 mg/kg/injection, schedule: Q## X001 (ip), vehicle: saline); 114 % of control and 232 % of control (dose: 160.0 mg/kg/injection, schedule: Q01DX001 (ip), vehicle: saline); 221 % of control (dose: 165.0 mg/kg/injection, schedule: Q04DX003 (ip), vehicle: saline); 118 % of control (dose: 180.0 mg/kg/injection, schedule: Q04DX003 (ip), vehicle: saline); 281 % of control and 291 % of control (dose: 200.0 mg/kg/injection, schedule: Q01DX001 (ip), vehicle: water). The T/C was 98 % of control (dose: 250.0 mg/kg/injection, schedule: Q01DX001 (ip), vehicle: saline); 353 % of control (dose: 250.0 mg/kg/injection, schedule: Q01DX001 (iv), vehicle: saline); 215 % of control and 252 % of control (dose: 320.0 mg/kg/injection, schedule: Q01DX001 (ip), vehicle: saline); 100 % of control (dose: 600.0 mg/kg/injection, schedule: Q01DX001 (ip), vehicle: water).

Consider `CC(O)(c1ccc(Br)cc1)C1CC1` (centres undefined), for which the T/C is 103 % of control (dose: 100.0 mg/kg/injection, schedule: Q01DX001 (ip), vehicle: Klucel (hydroxypropylcellulose) (HPC)); 91 % of control (dose: 200.0 mg/kg/injection, schedule: Q01DX001 (ip), vehicle: Klucel (hydroxypropylcellulose) (HPC)); 96 % of control (dose: 400.0 mg/kg/injection, schedule: Q01DX001 (ip), vehicle: Klucel (hydroxypropylcellulose) (HPC)).

For the molecule `Cc1ccc(NC(O)(C(F)(F)F)C(F)(F)F)cc1`, the T/C reads like this: (dose: 100.0 mg/kg/injection, schedule: Q04DX002 (ip), vehicle: Klucel (hydroxypropylcellulose) (HPC)) 100 % of control; (dose: 200.0 mg/kg/injection, schedule: Q04DX002 (ip), vehicle: Klucel (hydroxypropylcellulose) (HPC)) 97 % of control; (dose: 400.0 mg/kg/injection, schedule: Q04DX002 (ip), vehicle: Klucel (hydroxypropylcellulose) (HPC)) 96 % of control.

Consider `C=C1CCC2C(C)(CCC(O)C2(C)C(=O)O)C1CCc1ccoc1` (centres undefined), for which the T/C runs as follows: (dose: 20.0 mg/kg/injection, schedule: Q01DX005 (ip), vehicle: other) 95 % of control; (dose: 40.0 mg/kg/injection, schedule: Q01DX005 (ip), vehicle: other) 100 % of control; (dose: 80.0 mg/kg/injection, schedule: Q01DX005 (ip), vehicle: other) 103 % of control; (dose: 160.0 mg/kg/injection, schedule: Q01DX005 (ip), vehicle: other) 95 % of control.
